Measurements published in patent US10149876B2, “Tripterygium wilfordii extracts to overcome chemotherapy resistance” (WESTERN UNIVERSITY OF HEALTH SCIENCES, priority 2012, dated 2018).
Values joined by “and” are separate entries in the source; they are usually repeats but may differ in a detail not shown here. Equal values may be shown once. Read-outs that look alike come from different tables or passages of the source.

What was measured:
K562 cells = experiment: SRB cell viability assay, daunorubicin-sensitive K562 cells; type: cell-based, human; details: Homo sapiens, K562, read-out: IC50 of drug when cells treated with drug only
Description: Cell culture of the above cell lines was performed as described in Example 2, except that 5,000, rather than 3,000 cells were plated per well for the K562, K562/Dox, BT474, SkBr3 lines.
Table 17 also contains the serially-diluted concentrations of drugs that each cell line was tested against.
Table 36 reports the cell viability data relating to pre-treatment with LTG-E prior to daunorubicin treatment. Table 37 reports control data obtained from cells that were not pre-treated with LGT-E prior to daunorubicin treatment. FIG. 15 summarizes the data of Tables 36 and 37 in a graphical format.

K562/Dox cells = experiment: SRB cell viability assay, daunorubicin-resistant K562/Dox cells; type: cell-based, human; details: Homo sapiens

**Q.** What does the source list for `COc1cccc2c1C(=O)c1c(O)c3c(c(O)c1C2=O)C[C@@](O)(C(C)=O)C[C@@H]3O[C@H]1C[C@H](N)[C@H](O)[C@H](C)O1` [daunorubicin]?
**A.** IC50 (K562 cells): 1.05 µM and 0.55 µg/mL; IC50 (K562/Dox cells; K562, read-out: IC50 of drug when cells pre-treated with Chemosensitizing Agent before drug treatment): 6.53 µM and 3.45 µg/mL; IC50 (K562/Dox cells; K562, read-out: IC50 of drug when cells treated with drug only): 32.6 µM and 17.2 µg/mL
